Reference: PubChem BioAssay AID216 (DTP/NCI, 2004)
Values joined by “and” are separate entries in the source; they are usually repeats but may differ in a detail not shown here. Identical values can stand only once. Inconclusive results and toxic doses are left out.

Tested on: BDF1 mice, P288 leukemia ip, survival T/C
Assay: NCI In Vivo Anticancer Drug Screen. Data for tumor model P288 Lymphocytic Leukemia (intraperitoneal) in B6D2F1 (BDF1) mice
Conditions: endpoint: survival time, mean or median, higher = longer survival
Description: The antitumor activity of compounds was measured in mice bearing transplantable tumors. Survival or tumor size were measured and the results are expressed as the measurement made in the treated group (T) divided by the measurement made in the vehicle treated control group (C). The tumor model used in this assay is P288 Lymphocytic Leukemia (intraperitoneal) in B6D2F1 (BDF1) mice

[1] = dose: 10.0 mg/kg/injection, schedule: Q01DX010 (ip), vehicle: saline
[2] = dose: 20.0 mg/kg/injection, schedule: Q01DX010 (ip), vehicle: saline
[3] = dose: 3.1 mg/kg/injection, schedule: Q01DX Z (ip), vehicle: carboxymethylcellulose (CMC)
[4] = dose: 6.25 mg/kg/injection, schedule: Q01DX Z (ip), vehicle: carboxymethylcellulose (CMC)
[5] = dose: 25.0 mg/kg/injection, schedule: Q01DX010 (ip), vehicle: saline
[6] = dose: 50.0 mg/kg/injection, schedule: Q01DX010 (ip), vehicle: saline
[7] = dose: 100.0 mg/kg/injection, schedule: Q01DX010 (ip), vehicle: saline
[8] = dose: 200.0 mg/kg/injection, schedule: Q01DX010 (ip), vehicle: saline
[9] = dose: 400.0 mg/kg/injection, schedule: Q01DX010 (ip), vehicle: saline
[10] = dose: 40.0 mg/kg/injection, schedule: Q01DX010 (ip), vehicle: saline
[11] = dose: 12.5 mg/kg/injection, schedule: Q01DX Z (ip), vehicle: carboxymethylcellulose (CMC)
[12] = dose: 25.0 mg/kg/injection, schedule: Q01DX Z (ip), vehicle: carboxymethylcellulose (CMC)
[13] = dose: 50.0 mg/kg/injection, schedule: Q01DX Z (ip), vehicle: carboxymethylcellulose (CMC)
[14] = dose: 100.0 mg/kg/injection, schedule: Q01DX Z (ip), vehicle: carboxymethylcellulose (CMC)
[15] = dose: 200.0 mg/kg/injection, schedule: Q01DX Z (ip), vehicle: carboxymethylcellulose (CMC)

Q: Which results are given for O=c1[nH]cc(F)c(=O)[nH]1?
A: T/C (dose: 5.0 mg/kg/injection, schedule: Q01DX010 (ip), vehicle: saline): 115 % of control and 118 % of control and 100 % of control; T/C [1]: 122 % of control; T/C [2]: 155 % of control and 190 % of control and 193 % of control

Q: Which T/C [3] does the source give for CC(=O)Nc1ccc2nc3ccc(NC(C)=O)cc3[n+](-c3ccccc3)c2c1 here?
A: 115 % of control

Q: And the T/C [4]?
A: 113 % of control

Q: What about the T/C [5] of the same compound?
A: 112 % of control

Q: And the T/C [6]?
A: 112 % of control and 95 % of control

Q: What about the T/C [7] of the same compound?
A: 95 % of control

Q: What about the T/C [8] of the same compound?
A: 90 % of control

Q: And the T/C [9]?
A: 100 % of control

Q: And the T/C (dose: 400.0 mg/kg/injection, schedule: Q01DX Z (ip), vehicle: carboxymethylcellulose (CMC))?
A: 162 % of control

Q: C[C@@H]1C[C@@H]([C@H](O)CC2CC(=O)NC(=O)C2)C(=O)[C@@H](C)C1 was tested. Which T/C [1] did it give?
A: 94 % of control

Q: And the T/C (dose: 12.5 mg/kg/injection, schedule: Q01DX Z (ip), vehicle: water)?
A: 94 % of control

Q: What about the T/C [2] of the same compound?
A: 94 % of control

Q: What about the T/C (dose: 25.0 mg/kg/injection, schedule: Q01DX Z (ip), vehicle: water) of the same compound?
A: 98 % of control

Q: What about the T/C [10] of the same compound?
A: 105 % of control

Q: For CS(=O)(=O)OCCCl, which T/C [3] is on record?
A: 88 % of control

Q: What about the T/C [4] of the same compound?
A: 89 % of control

Q: And the T/C [11]?
A: 86 % of control and 89 % of control

Q: What about the T/C (dose: 18.8 mg/kg/injection, schedule: Q01DX010 (ip), vehicle: saline) of the same compound?
A: 88 % of control and 95 % of control

Q: What about the T/C (dose: 37.5 mg/kg/injection, schedule: Q01DX010 (ip), vehicle: saline) of the same compound?
A: 90 % of control and 94 % of control

Q: What about the T/C (dose: 75.0 mg/kg/injection, schedule: Q01DX010 (ip), vehicle: saline) of the same compound?
A: 90 % of control and 100 % of control

Q: What about the T/C (dose: 150.0 mg/kg/injection, schedule: Q01DX010 (ip), vehicle: saline) of the same compound?
A: 105 % of control and 90 % of control

Q: With CC[C@]1(O)C[C@H]2CN(CCc3c([nH]c4ccccc34)[C@@](C(=O)OC)(c3cc4c(cc3OC)N(C=O)[C@H]3[C@@](O)(C(=O)OC)[C@H](OC(C)=O)[C@]5(CC)C=CCN6CC[C@]43[C@@H]65)C2)C1 as the compound, how does the T/C (dose: 0.06 mg/kg/injection, schedule: Q01DX Z (ip), vehicle: water) read?
A: 102 % of control

Q: What about the T/C (dose: 0.12 mg/kg/injection, schedule: Q01DX Z (ip), vehicle: water) of the same compound?
A: 109 % of control

Q: And the T/C (dose: 0.25 mg/kg/injection, schedule: Q01DX Z (ip), vehicle: water)?
A: 116 % of control

Q: What about the T/C (dose: 0.5 mg/kg/injection, schedule: Q01DX Z (ip), vehicle: water) of the same compound?
A: 120 % of control and 101 % of control

Q: With OC(CBr)C(O)C(O)C(O)CBr (configuration not stated) as the compound, how does the T/C [6] read?
A: 114 % of control and 94 % of control

Q: What about the T/C [7] of the same compound?
A: 114 % of control and 94 % of control

Q: What about the T/C [8] of the same compound?
A: 114 % of control and 94 % of control

Q: What about the T/C [9] of the same compound?
A: 105 % of control and 114 % of control

Q: With O=C(Nc1ccc(C2=NCCN2)cc1)c1ccc(C(=O)Nc2ccc(C3=NCCN3)cc2)cc1 as the compound, how does the T/C (dose: 3.12 mg/kg/injection, schedule: Q01DX Z (ip), vehicle: carboxymethylcellulose (CMC)) read?
A: 107 % of control

Q: And the T/C [4]?
A: 94 % of control

Q: What about the T/C (dose: 8.0 mg/kg/injection, schedule: Q01DX010 (ip), vehicle: other) of the same compound?
A: 158 % of control and 188 % of control

Q: What about the T/C [11] of the same compound?
A: 102 % of control

Q: What about the T/C (dose: 16.0 mg/kg/injection, schedule: Q01DX010 (ip), vehicle: other) of the same compound?
A: 195 % of control

Q: What about the T/C [12] of the same compound?
A: 102 % of control

Q: What about the T/C (dose: 32.0 mg/kg/injection, schedule: Q01DX010 (ip), vehicle: other) of the same compound?
A: 154 % of control

Q: What about the T/C [13] of the same compound?
A: 102 % of control

Q: What about the T/C [14] of the same compound?
A: 204 % of control

Q: And the T/C [15]?
A: 186 % of control

Q: With CC1CCOS(=O)O1 (configuration not stated) as the compound, how does the T/C [1] read?
A: 88 % of control

Q: What about the T/C [2] of the same compound?
A: 100 % of control

Q: And the T/C [10]?
A: 100 % of control

Q: Cn1cnc([N+](=O)[O-])c1Sc1nc(N)nc2nc[nH]c12 was tested. Which T/C (dose: 0.25 mg/kg/injection, schedule: Q01DX Z (ip), vehicle: carboxymethylcellulose (CMC)) did it give?
A: 107 % of control

Q: And the T/C (dose: 0.5 mg/kg/injection, schedule: Q01DX Z (ip), vehicle: carboxymethylcellulose (CMC))?
A: 94 % of control

Q: What about the T/C (dose: 1.0 mg/kg/injection, schedule: Q01DX Z (ip), vehicle: carboxymethylcellulose (CMC)) of the same compound?
A: 113 % of control

Q: And the T/C (dose: 2.0 mg/kg/injection, schedule: Q01DX Z (ip), vehicle: carboxymethylcellulose (CMC))?
A: 105 % of control

Q: Nc1nc(SCc2ccccc2)c2[nH]cnc2n1 was tested. Which T/C (dose: 2.5 mg/kg/injection, schedule: Q01DX Z (ip), vehicle: carboxymethylcellulose (CMC)) did it give?
A: 108 % of control

Q: What about the T/C (dose: 4.95 mg/kg/injection, schedule: Q01DX Z (ip), vehicle: carboxymethylcellulose (CMC)) of the same compound?
A: 113 % of control

Q: What about the T/C (dose: 8.0 mg/kg/injection, schedule: Q01DX010 (ip), vehicle: saline) of the same compound?
A: 94 % of control

Q: And the T/C (dose: 9.9 mg/kg/injection, schedule: Q01DX Z (ip), vehicle: carboxymethylcellulose (CMC))?
A: 91 % of control

Q: And the T/C (dose: 16.0 mg/kg/injection, schedule: Q01DX010 (ip), vehicle: saline)?
A: 88 % of control

Q: And the T/C (dose: 18.75 mg/kg/injection, schedule: Q01DX Z (ip), vehicle: carboxymethylcellulose (CMC))?
A: 88 % of control

Q: And the T/C (dose: 18.8 mg/kg/injection, schedule: Q01DX Z (ip), vehicle: carboxymethylcellulose (CMC))?
A: 113 % of control

Q: And the T/C (dose: 32.0 mg/kg/injection, schedule: Q01DX010 (ip), vehicle: saline)?
A: 100 % of control

Q: What about the T/C (dose: 64.0 mg/kg/injection, schedule: Q01DX010 (ip), vehicle: saline) of the same compound?
A: 122 % of control

Q: What about the T/C (dose: 128.0 mg/kg/injection, schedule: Q01DX010 (ip), vehicle: saline) of the same compound?
A: 110 % of control

Q: What does the source list for Cc1cc2nc3c(=O)[nH]c(=O)nc-3n(CC(O)C(O)C(O)C(O)CO)c2cc1C (configuration not stated)?
A: T/C [5]: 100 % of control; T/C [6]: 118 % of control; T/C [7]: 106 % of control and 94 % of control; T/C [8]: 106 % of control and 94 % of control; T/C [9]: 112 % of control

Q: What does the source list for CCCCCCCCCCCCNCCCCCCCCCCCC?
A: T/C (dose: 7.5 mg/kg/injection, schedule: Q01DX Z (ip), vehicle: carboxymethylcellulose (CMC)): 108 % of control; T/C (dose: 15.0 mg/kg/injection, schedule: Q01DX Z (ip), vehicle: carboxymethylcellulose (CMC)): 106 % of control; T/C (dose: 30.0 mg/kg/injection, schedule: Q01DX Z (ip), vehicle: carboxymethylcellulose (CMC)): 110 % of control; T/C (dose: 60.0 mg/kg/injection, schedule: Q01DX Z (ip), vehicle: carboxymethylcellulose (CMC)): 116 % of control

Q: With CSc1ncnc2nc[nH]c12 as the compound, how does the T/C [4] read?
A: 105 % of control

Q: And the T/C [11]?
A: 101 % of control

Q: What about the T/C [5] of the same compound?
A: 90 % of control

Q: And the T/C [12]?
A: 101 % of control

Q: And the T/C [6]?
A: 86 % of control and 90 % of control

Q: What about the T/C [13] of the same compound?
A: 113 % of control and 88 % of control

Q: And the T/C [7]?
A: 100 % of control

Q: And the T/C [8]?
A: 90 % of control and 100 % of control

Q: How did the T/C [4] turn out when CN(C)c1ccc(Nc2c3ccccc3nc3ccccc23)cc1 was run?
A: 115 % of control

Q: What about the T/C [11] of the same compound?
A: 105 % of control

Q: What about the T/C [12] of the same compound?
A: 112 % of control

Q: What about the T/C (dose: 36.0 mg/kg/injection, schedule: Q01DX010 (ip), vehicle: saline) of the same compound?
A: 100 % of control

Q: What about the T/C [13] of the same compound?
A: 123 % of control and 98 % of control

Q: What about the T/C (dose: 54.0 mg/kg/injection, schedule: Q01DX010 (ip), vehicle: saline) of the same compound?
A: 111 % of control

Q: What about the T/C [14] of the same compound?
A: 117 % of control

Q: What about the T/C (dose: 120.0 mg/kg/injection, schedule: Q01DX010 (ip), vehicle: saline) of the same compound?
A: 88 % of control

Q: And the T/C [15]?
A: 92 % of control

Q: For CCN(CC)C(=S)S, which T/C (dose: 125.0 mg/kg/injection, schedule: Q01DX Z (ip), vehicle: other) is on record?
A: 97 % of control

Q: And the T/C (dose: 250.0 mg/kg/injection, schedule: Q01DX Z (ip), vehicle: other)?
A: 112 % of control

Q: What about the T/C (dose: 500.0 mg/kg/injection, schedule: Q01DX Z (ip), vehicle: other) of the same compound?
A: 104 % of control

Q: What about the T/C (dose: 1000.0 mg/kg/injection, schedule: Q01DX Z (ip), vehicle: other) of the same compound?
A: 104 % of control

Q: CN1CC[C@]23c4c5ccc(O)c4O[C@H]2C(=O)CC[C@H]3[C@H]1C5 was tested. Which T/C (dose: 0.5 mg/kg/injection, schedule: Q01DX010 (ip), vehicle: saline) did it give?
A: 106 % of control

Q: And the T/C (dose: 1.0 mg/kg/injection, schedule: Q01DX010 (ip), vehicle: saline)?
A: 118 % of control

Q: And the T/C (dose: 2.0 mg/kg/injection, schedule: Q01DX010 (ip), vehicle: saline)?
A: 106 % of control

Q: And the T/C (dose: 4.0 mg/kg/injection, schedule: Q01DX010 (ip), vehicle: saline)?
A: 100 % of control
